Experimental data published in publication PMC12363342, “Investigating the N-terminal linker histone H1 subtypes as substrates for JmjC lysine demethylases” (RSC Chemical Biology, 2025).
Square brackets hold non-standard residues; d marks the D form. Ends that are not written are not given here. Lys(Me3) = C[N+](C)(C)CCCC[C@H](N)C(=O)O; Lys(Me2) = CN(C)CCCC[C@H](N)C(=O)O

Legend:
KDM3A = experiment: LC-MS demethylation activity assay, KDM3A; format: biochemical, human; conditions: 2 μM KDM, 10 μM H1/H3 peptide, 10 μM FAS, 100 μM LAA, 20 μM 2OG, 50 mM HEPES pH 7.5, 2 h, room temperature; for KDM3A demethylation activity, D: D (di-) initial methylation state; for KDM3A demethylation activity, M: M (mono-) initial methylation state
Description: (§1) The substrate specificity of JmjC KDMs for H1 was examined using liquid chromatography coupled to mass spectrometry (LC-MS) assays. The H1 peptides (10 μM) were incubated with the recombinant KDM (2 μM) in HEPES buffer at pH 7.5 at room temperature for 2 h, in the presence of ferrous(II) ammonium sulfate (FAS, 10 μM), sodium ascorbate (LAA, 100 μM) and 2OG (20 μM), and then quenched with formic acid. N^ε-Methylated H3K9 and H3K36 peptides were used as positive controls (Fig. 3–5 and Fig. S2–S6).[26]
(§2) The catalytic domains of the JmjC KDMs used were recombinantly produced as reported in either Escherichia coli (KDM4AM1-L359,[38] KDM4DM1-L359,[39] KDM4EM1-R336,[30] KDM6BD1141–E1590[40] and KDM3CL2157-L2500) or Sf9 cells (KDM3AT515–S1317, KDM3B882–1761, and KDM5DM1-D775) as N-terminally His6-tagged proteins. […] To produce proteins, DNA sequences encoding for KDM3A, KDM3B and KDM5D were inserted into the pFB-LIC vector, containing a TEV-protease cleavable N-terminal 6x-histidine tag via ligation independent cloning (LIC). The resultant plasmids were transformed into baculovirus and Sf9 cells ([…]) which were infected with the virus stock. The cells were grown at 27 °C and 90 rpm for 70 h. Cells were then harvested and suspended in 100 mL of lysis buffer (50 mM HEPES-NaOH, pH 7.4, 500 mM NaCl, 20 mM imidazole, 0.5 mM Tris (2-carboxyethyl)phosphine (TCEP), 5% (v/v) glycerol). […] The supernatant was loaded onto a Ni-NTA gravity column, washed with 10 column volume of lysis buffer and eluted using the elution buffer (50 mM HEPES-NaOH, pH 7.4, 500 mM NaCl, 300 mM imidazole, 0.5 mM TCEP, 5% (v/v) glycerol). The eluted protein was further purified using S200 gel filtration column chromatography (50 mM HEPES-NaOH, pH 7.4, 150 mM NaCl, 0.5 mM TCEP and 5% glycerol). Protein purity was analysed by SDS-PAGE and further confirmed by mass spectrometry. Selected fractions were pooled, concentrated and stored at −80 °C.
(§3) All reagents were purchased from Sigma Aldrich and were of the highest grade available. Ferrous(II) ammonium sulfate (FAS) solutions were prepared freshly by dissolving FAS to 400 mM in 20 mM HCl with subsequent dilution to 1 mM using deionized water. Fresh 2OG (10 mM) and LAA (50 mM) solutions were prepared by dissolving the solids in deionised water. All enzyme reactions were performed in 384-well plates (Greiner Bio-One) with a final reaction volume of 50 μL. Substrate mixtures contained 50 mM HEPES pH 7.5, LAA (100 μM), FAS (10 μM), 2OG (20 μM) and an H1 isoform peptide (10 μM). Reactions were initiated by the addition of enzyme to a final concentration of 2.0 μM. After 2 h, the reactions were stopped by the addition of 5 μL of 10% (v/v) LC-MS grade formic acid (Fisher Scientific) to a final concentration of 1% (v/v). Product analyses were performed by liquid chromatography-mass spectrometry (LC-MS) using an Agilent 1290 infinity II LC system equipped with an Agilent 1290 multisampler and an Agilent 1290 high speed pump and connected to an Agilent 6550 accurate mass iFunnel quadrupole time of flight (Q-TOF) mass spectrometer. 1 μL of the reaction mixture was injected onto a 1.8 μm × 2.1 × 50 mm ZORBAX RRHD Eclipse Plus C18 column (Agilent). Solvent A consisted of HPLC grade water containing 0.1% (v/v) formic acid and solvent B consisted of MeCN containing 0.1% (v/v) formic acid. Peptides were separated using a stepwise gradient (0 min – 95% solvent A, 1.0 min – 80% solvent A, 3.0 min – 45% solvent A, 4.0 min – 45% solvent A, 5.0 min – 0% solvent A, 6.0 min – 0% solvent A, 7.0 min – 95% solvent A). This was followed by a 3 min post-run with 95% solvent A to re-equilibrate the column. All flow rates were 0.2 mL min^−1. A blank injection of HPLC grade water was carried out between each sample injection.

KDM3B = experiment: LC-MS demethylation activity assay, KDM3B; format: biochemical, human; conditions: 2 μM KDM, 10 μM H1/H3 peptide, 10 μM FAS, 100 μM LAA, 20 μM 2OG, 50 mM HEPES pH 7.5, 2 h, room temperature; for KDM3B demethylation activity, D: D (di-) initial methylation state; for KDM3B demethylation activity, M: M (mono-) initial methylation state
Description: as §1, §2, §3

KDM3C = experiment: LC-MS demethylation activity assay, KDM3C; format: biochemical, human; conditions: 2 μM KDM, 10 μM H1/H3 peptide, 10 μM FAS, 100 μM LAA, 20 μM 2OG, 50 mM HEPES pH 7.5, 2 h, room temperature; for KDM3C demethylation activity, D: D (di-) initial methylation state; for KDM3C demethylation activity, M: M (mono-) initial methylation state
Description: as §1, §2, §3

KDM4A = experiment: LC-MS demethylation activity assay, KDM4A; format: biochemical, human; conditions: 10 μM FAS, 100 μM LAA, 20 μM 2OG, room temperature; for substrate conversion (demethylation) by KDM4A: 2 μM KDM4A, 10 μM peptide, HEPES pH 7.5, 2 h; for KDM4A demethylation activity, D: D (di-) initial methylation state; for KDM4A demethylation activity, M: M (mono-) initial methylation state
Description: as §1, §2, §3

KDM4D = biological target: T1, KDM4D (Homo sapiens, UniProt Q6B0I6); experiment: LC-MS demethylation activity assay, KDM4D; format: biochemical; conditions: room temperature; for KDM4D demethylation activity, D: D (di-) initial methylation state; for KDM4D demethylation activity, M: M (mono-) initial methylation state
T1 construct: KDM4AM1-L359,[38]; KDM4DM1-L359,[39]; KDM4EM1-R336,[30]; His6 (N); made in house; host or cells: Escherichia coli
T1 sequence (Q6B0I6 1-359): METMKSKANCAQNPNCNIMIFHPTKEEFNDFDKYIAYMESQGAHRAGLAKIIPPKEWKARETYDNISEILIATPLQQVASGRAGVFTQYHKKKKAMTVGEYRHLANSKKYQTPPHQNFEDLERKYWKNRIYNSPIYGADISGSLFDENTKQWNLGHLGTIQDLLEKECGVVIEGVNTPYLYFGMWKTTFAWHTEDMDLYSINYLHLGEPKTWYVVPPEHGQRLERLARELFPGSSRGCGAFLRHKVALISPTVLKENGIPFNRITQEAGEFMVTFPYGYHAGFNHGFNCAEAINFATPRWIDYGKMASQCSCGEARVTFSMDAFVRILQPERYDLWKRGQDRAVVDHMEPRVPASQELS
Description: as §1, §2, §3

KDM4E = biological target: T2, KDM4E (Homo sapiens, UniProt B2RXH2); experiment: LC-MS demethylation activity assay, KDM4E; format: biochemical; conditions: 10 μM FAS, 100 μM LAA, 20 μM 2OG, room temperature; for substrate conversion (demethylation) by KDM4E: 2 μM KDM4E, 10 μM peptide, HEPES pH 7.5, 2 h; for KDM4E demethylation activity, D: D (di-) initial methylation state; for KDM4E demethylation activity, M: M (mono-) initial methylation state
T2 construct: KDM4DM1-L359,[39]; KDM4EM1-R336,[30]; His6 (N); made in house; host or cells: Escherichia coli
T2 sequence (B2RXH2 1-336): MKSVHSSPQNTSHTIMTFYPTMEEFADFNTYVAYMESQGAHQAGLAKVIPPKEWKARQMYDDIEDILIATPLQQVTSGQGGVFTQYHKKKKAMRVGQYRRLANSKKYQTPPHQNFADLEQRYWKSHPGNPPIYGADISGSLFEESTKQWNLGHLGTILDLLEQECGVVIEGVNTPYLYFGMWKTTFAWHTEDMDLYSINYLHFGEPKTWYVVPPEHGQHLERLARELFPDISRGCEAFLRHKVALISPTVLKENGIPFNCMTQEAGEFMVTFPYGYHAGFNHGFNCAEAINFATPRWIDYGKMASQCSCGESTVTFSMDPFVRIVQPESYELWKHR
Description: as §1, §2, §3

KDM5D = experiment: LC-MS demethylation activity assay, KDM5D; format: biochemical, human; conditions: 2 μM KDM, 10 μM H1/H3 peptide, 10 μM FAS, 100 μM LAA, 20 μM 2OG, 50 mM HEPES pH 7.5, 2 h, room temperature; for KDM5D demethylation activity, D: D (di-) initial methylation state; for KDM5D demethylation activity, M: M (mono-) initial methylation state
Description: as §1, §2, §3

KDM6B = experiment: LC-MS demethylation activity assay, KDM6B; format: biochemical, human; conditions: 2 μM KDM, 10 μM H1/H3 peptide, 10 μM FAS, 100 μM LAA, 20 μM 2OG, 50 mM HEPES pH 7.5, 2 h, room temperature; for KDM6B demethylation activity, D: D (di-) initial methylation state; for KDM6B demethylation activity, M: M (mono-) initial methylation state
Description: as §1, §2, §3

[1] = T (tri-) initial methylation state
[2] = 2 μM KDM, 10 μM H1/H3 peptide, 50 mM HEPES pH 7.5, 2 h, T (tri-) initial methylation state
[3] = 2 μM KDM4D, 10 μM peptide, standard conditions, 2 h
[4] = 2 μM KDM, 10 μM H1/H3 peptide, 50 mM HEPES pH 7.5, 2 h
[5] = 2 μM KDM, 10 μM H1/H3 peptide, 10 μM FAS, 100 μM LAA, 20 μM 2OG, 50 mM HEPES pH 7.5, 2 h

Substance | substrate conversion (demethylation) by KDM4A (KDM4A) [%] | substrate conversion (demethylation) by KDM4E (KDM4E) [%] | KDM3A demethylation activity, D (KDM3A) | KDM3B demethylation activity, D (KDM3B) | KDM3C demethylation activity, D (KDM3C) | KDM4A demethylation activity, D (KDM4A; [4]) | KDM4D demethylation activity, D (KDM4D; [5]) | KDM4E demethylation activity, D (KDM4E; [4]) | KDM5D demethylation activity, D (KDM5D) | KDM6B demethylation activity, D (KDM6B) | KDM3A demethylation activity, M (KDM3A) | KDM3B demethylation activity, M (KDM3B) | KDM3C demethylation activity, M (KDM3C) | KDM4A demethylation activity, M (KDM4A; [4]) | KDM4D demethylation activity, M (KDM4D; [5]) | KDM4E demethylation activity, M (KDM4E; [4]) | KDM5D demethylation activity, M (KDM5D) | KDM6B demethylation activity, M (KDM6B) | also measured
KKKAK[Lys(Me3)]AGATAGKRK [Peptide H1.3K25me3, 15-mer linker histone H1.3 residues 20-34 peptide, tri-methylated K25] | < 10 | < 10 |  |  |  |  |  |  |  |  |  |  |  |  |  |  |  |  | KDM3A demethylation activity, T (KDM3A; [1]): ● [red]; KDM3B demethylation activity, T (KDM3B; [1]): ● [red]; KDM3C demethylation activity, T (KDM3C; [1]): ● [red]; KDM4A demethylation activity, T (KDM4A; [2]): ● [black] (black dots indicate low-level demethylation (<10% conversion)); KDM4D demethylation activity, in words (KDM4D; [3]): No activity was observed; di-methylated product formed by KDM4D (KDM4D; [3]): < 5%; KDM4D demethylation activity, T (KDM4D; 2 μM KDM, 10 μM H1/H3 peptide, 10 μM FAS, 100 μM LAA, 20 μM 2OG, 50 mM HEPES pH 7.5, 2 h, T (tri-) initial methylation state): ● [red]; KDM4E demethylation activity, T (KDM4E; [2]): ● [black] (black dots indicate low-level demethylation (<10% conversion)); KDM5D demethylation activity, T (KDM5D; [1]): ● [red]; KDM6B demethylation activity, T (KDM6B; [1]): ● [red]
KKKAR[Lys(Me2)]SAGAAKRKA [Peptide H1.4K25me2, 15-mer linker histone H1.4 residues 20-34 peptide, di-methylated K25] | ~20 | ~50 | ● [red] | ● [red] | ● [red] | ● [black] (black dots indicate low-level demethylation (<10% conversion)) | ● [yellow] (yellow dots indicate moderate demethylation (<50% conversion)) | ● [red] | ● [red] | ● [red] |  |  |  |  |  |  |  |  | substrate conversion (demethylation) by KDM4D (KDM4D; 2 μM KDM4D, 10 μM peptide, 10 μM FAS, 100 μM LAA, 20 μM 2OG, HEPES pH 7.5, 2 h): > 40%
KKKATKKmeAAGAGAAK [Peptide H1.5K26me, 15-mer linker histone H1.5 residues 20-34 peptide, mono-methylated K26] |  |  |  |  |  |  |  |  |  |  | ● [red] | ● [red] | ● [red] | ● [red] | ● [red] | ● [red] | ● [red] | ● [red] | 
KKKATK[Lys(Me2)]AAGAGAAK [Peptide H1.5K26me2, 15-mer linker histone H1.5 residues 20-34 peptide, di-methylated K26] |  | > 40 | ● [red] | ● [red] | ● [red] | ● [red] | ● [black] (black dots indicate low-level demethylation (<10% conversion)) | ● [green] (green dots indicate good demethylation (>50% conversion)) | ● [red] | ● [red] |  |  |  |  |  |  |  |  | 
KKKATKmeKAAGAGAAK [Peptide H1.5K25me, 15-mer linker histone H1.5 residues 20-34 peptide, mono-methylated K25] |  |  |  |  |  |  |  |  |  |  | ● [red] | ● [red] | ● [red] | ● [red] | ● [red] | ● [red] | ● [red] | ● [red] | 
KKKAT[Lys(Me2)]KAAGAGAAK [Peptide H1.5K25me2, 15-mer linker histone H1.5 residues 20-34 peptide, di-methylated K25] |  |  | ● [red] | ● [red] | ● [red] | ● [red] | ● [red] | ● [red] | ● [red] | ● [red] |  |  |  |  |  |  |  |  | 
